From ChEMBL document CHEMBL1201862, “PubChem BioAssay data set” (2004) come the findings set out here.

In assay [1] the target is Beta-adrenergic receptor kinase 1 (Homo sapiens, UniProt P25098). As to the kind of experiment: GRK2 inhibitors displacing RNA aptamer, dose response, biochemical, flow cytometry beads, FAM-aptamer, powder set 1 (AID 588720). For orientation: Flow cytometry measures light scatter and fluorescence of single cells or particles in a stream.
Assay [2] has as its system Vero. As to the kind of experiment: cells. The assay is classed as functional. As to conditions: Chlorocebus sabaeus.
Assay [3] in a line: Luminescence Cell-Based Dose Retest to Confirm Inhibitors of Cancer Stem Cells. [Related pubchem assays (depositor defined):AID2717, AID2721]. It is filed as functional. As to conditions: Homo sapiens.
Assay [4] is described as follows: cytotoxicity in HMLE control line with eGFP shRNA, dose response, counter-screen for HMLE_sh_ECad selective toxicity project, cell-based, HMLE_sh_eGFP, luminescence (AID 463074).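 Further: HMLE human mammary epithelial cells expressing control shRNA against eGFP.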 The assay is classed as functional, Homo sapiens. For orientation: The purpose of a counterscreen is to sort out artefacts and off-target activity.
Assay [5] addresses CAAX prenyl protease 2 (Homo sapiens, UniProt Q9Y256). The assay is described as follows: human Rce1 protease inhibitors, dose response, biochemical, yeast membranes, quenched-peptide fluorescence, cherry-pick (AID 588849).
Assay [6] concerns the target Trypsin (Sus scrofa, UniProt P00761). As to the kind of experiment: porcine trypsin inhibitors, dose response, selectivity assay for Rce1 protease inhibitor project, biochemical, quenched peptide fluorescence, cherry-pick (AID 488789).
Assay [7] addresses T1, CAAX prenyl protease 2 (Saccharomyces cerevisiae S288c, UniProt Q03530).
T1 sequence (Q03530 whole entry): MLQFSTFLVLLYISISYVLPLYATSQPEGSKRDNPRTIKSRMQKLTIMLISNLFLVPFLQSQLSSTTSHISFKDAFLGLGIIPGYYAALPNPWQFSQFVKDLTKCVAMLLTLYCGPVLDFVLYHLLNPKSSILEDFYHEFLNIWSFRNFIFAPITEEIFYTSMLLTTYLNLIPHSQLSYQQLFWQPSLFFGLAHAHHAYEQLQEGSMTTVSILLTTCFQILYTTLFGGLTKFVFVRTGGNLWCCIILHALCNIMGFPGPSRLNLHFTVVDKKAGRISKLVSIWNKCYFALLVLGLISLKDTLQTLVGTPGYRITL
The assay is classed as biochemical.

Assay [8] concerns the target Lysine-specific demethylase 4C (Homo sapiens, UniProt Q9H3R0). The assay is described as follows: GASC-1 (JMJD2C) histone demethylase inhibitors, dose response, biochemical, DELFIA europium, cherry-picked samples (AID 488835). The assay is classed as functional.

The structures appear in SMILES notation. The source made the active and inactive calls. For most assays here, no stated cut-off is given here; in the data, actives have a measured AC50 and inactives only a lower limit.

Sequence of Lysine-specific demethylase 4C (Q9H3R0 whole entry): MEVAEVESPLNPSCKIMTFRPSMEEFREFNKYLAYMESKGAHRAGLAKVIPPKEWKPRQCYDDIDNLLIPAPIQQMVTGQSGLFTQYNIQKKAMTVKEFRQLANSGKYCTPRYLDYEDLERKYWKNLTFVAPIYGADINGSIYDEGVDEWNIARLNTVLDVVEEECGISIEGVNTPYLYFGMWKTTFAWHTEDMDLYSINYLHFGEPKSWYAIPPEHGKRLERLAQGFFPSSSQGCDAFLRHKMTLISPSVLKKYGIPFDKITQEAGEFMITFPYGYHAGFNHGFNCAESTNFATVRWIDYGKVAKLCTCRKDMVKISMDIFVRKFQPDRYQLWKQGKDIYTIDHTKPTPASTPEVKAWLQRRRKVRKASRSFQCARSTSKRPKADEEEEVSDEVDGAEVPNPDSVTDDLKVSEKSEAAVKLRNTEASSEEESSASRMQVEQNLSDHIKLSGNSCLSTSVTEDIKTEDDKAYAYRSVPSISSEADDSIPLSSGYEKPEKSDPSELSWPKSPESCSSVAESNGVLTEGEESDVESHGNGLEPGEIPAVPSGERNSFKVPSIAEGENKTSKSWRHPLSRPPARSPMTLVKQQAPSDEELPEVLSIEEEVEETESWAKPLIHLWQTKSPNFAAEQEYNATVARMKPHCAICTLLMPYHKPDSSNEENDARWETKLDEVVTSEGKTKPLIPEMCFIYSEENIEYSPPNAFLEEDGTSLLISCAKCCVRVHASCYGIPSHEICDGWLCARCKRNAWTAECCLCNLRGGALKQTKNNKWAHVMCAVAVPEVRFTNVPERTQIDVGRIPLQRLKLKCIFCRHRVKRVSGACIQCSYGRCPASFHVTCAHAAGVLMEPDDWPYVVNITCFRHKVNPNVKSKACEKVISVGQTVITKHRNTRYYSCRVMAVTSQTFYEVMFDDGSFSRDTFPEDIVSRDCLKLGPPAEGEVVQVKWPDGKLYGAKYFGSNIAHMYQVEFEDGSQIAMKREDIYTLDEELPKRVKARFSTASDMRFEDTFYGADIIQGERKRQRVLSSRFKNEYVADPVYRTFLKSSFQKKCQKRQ
Sequence of CAAX prenyl protease 2 (Homo sapiens, UniProt Q9Y256) (Q9Y256 whole entry): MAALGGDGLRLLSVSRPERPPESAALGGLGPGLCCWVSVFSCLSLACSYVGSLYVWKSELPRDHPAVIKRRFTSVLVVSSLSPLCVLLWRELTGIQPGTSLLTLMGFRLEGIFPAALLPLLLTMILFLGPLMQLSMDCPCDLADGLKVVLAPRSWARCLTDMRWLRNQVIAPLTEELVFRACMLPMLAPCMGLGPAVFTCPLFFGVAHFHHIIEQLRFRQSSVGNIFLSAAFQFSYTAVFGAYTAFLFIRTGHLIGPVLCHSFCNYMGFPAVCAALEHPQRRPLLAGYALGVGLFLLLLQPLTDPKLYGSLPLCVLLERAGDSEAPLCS
Sequence of Beta-adrenergic receptor kinase 1 (P25098 whole entry): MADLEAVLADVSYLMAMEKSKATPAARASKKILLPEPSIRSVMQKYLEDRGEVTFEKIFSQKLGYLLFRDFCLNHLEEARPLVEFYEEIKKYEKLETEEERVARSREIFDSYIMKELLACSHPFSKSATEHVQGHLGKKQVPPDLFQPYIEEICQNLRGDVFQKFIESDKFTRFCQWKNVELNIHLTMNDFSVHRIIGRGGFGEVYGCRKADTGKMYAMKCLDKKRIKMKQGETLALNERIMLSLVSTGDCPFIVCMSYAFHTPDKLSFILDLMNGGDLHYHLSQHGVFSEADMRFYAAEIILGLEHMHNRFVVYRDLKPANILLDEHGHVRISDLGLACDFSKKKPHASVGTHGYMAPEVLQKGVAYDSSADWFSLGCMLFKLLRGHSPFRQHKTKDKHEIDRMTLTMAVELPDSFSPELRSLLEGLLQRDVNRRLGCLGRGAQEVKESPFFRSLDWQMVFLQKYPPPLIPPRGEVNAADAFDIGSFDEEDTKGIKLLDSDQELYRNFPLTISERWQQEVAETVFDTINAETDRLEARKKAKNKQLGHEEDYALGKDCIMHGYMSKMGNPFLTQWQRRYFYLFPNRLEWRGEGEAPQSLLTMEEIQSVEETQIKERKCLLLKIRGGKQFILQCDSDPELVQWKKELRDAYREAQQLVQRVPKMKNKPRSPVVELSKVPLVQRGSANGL
Sequence of Trypsin (P00761 whole entry): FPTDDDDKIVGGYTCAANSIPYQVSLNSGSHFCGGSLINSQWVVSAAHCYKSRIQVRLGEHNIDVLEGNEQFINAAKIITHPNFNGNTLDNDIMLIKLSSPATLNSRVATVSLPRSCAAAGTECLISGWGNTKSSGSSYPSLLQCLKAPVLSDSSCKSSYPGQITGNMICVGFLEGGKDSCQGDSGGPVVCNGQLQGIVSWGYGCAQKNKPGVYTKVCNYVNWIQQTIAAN

One may read the EC50 as the concentration at which the effect is half-maximal. Consider `Cc1cccc(N2CCN(C(=O)CCS(=O)(=O)c3ccc(Br)cc3)CC2C)c1` (stereo not drawn), for which, in assay [1], the EC50 was 2 µM (active).
Broadly, the CC50 is the concentration that lowers cell viability or growth by half. The AC50 is the concentration giving half of the maximal activity seen. Turning to `Cc1cc(N/N=C/c2ccc(Cl)cc2Cl)nc(NCc2ccccc2)n1`, the CC50 in assay [2] is > 25 µM (active). Further, the AC50 in assay [3] was 3.49 µM (active); in assay [4] it was 32.2 µM (active).
With `CC1=C(C)C(C)=C(C#N)C(=C(C#N)C#N)N1`, the AC50 in assay [5] was 13.9 µM (active); in assay [6] it was 12.1 µM (active); in assay [7], 13.2 µM (active).
Turning to `Oc1cc(NC2CCCCCC2)nc(O)n1`, in assay [8], the concentration at half-maximal activity (AC50) is 8.69 µM (active).
